Measured values published in patent US20060178323A1, “Methods for the treatment of chronic pain and compositions therefor” (priority 2002, published 2006).

Legend:
Format in all cases: in vivo
[1] = tested on: mechanical hyperalgesia in the Seltzer model of neuropathic pain in the rat; assay: Seltzer model, development of mechanical hyperalgesia, repeated administration of Compound A
Source text: (§1) Two animal models of chronic neuropathic pain may be used that involve some form of peripheral nerve damage. In the Seltzer model (Seltzer et al. (1990) Pain 43: 205-218) rats are anaesthetised and a small incision made mid-way up one thigh (usually the left) to expose the sciatic nerve. The nerve is carefully cleared of surrounding connective tissues at a site near the trochanter just distal to the point at which the posterior biceps semitendinosus nerve branches off the common sciatic nerve. A 7-0 silk suture is inserted into the nerve with a ⅜ curved, reversed-cutting mini-needle, and tightly ligated so that the dorsal ⅓ to ½ of the nerve thickness is held within the ligature. The muscle and skin are closed with sutures and clips and the wound dusted with antibiotic powder. In sham animals the sciatic nerve is exposed but not ligated and the wound closed as in nonsham animals.
(§2) In all chronic pain models (inflammatory and neuropathic) mechanical hyperalgesia is assessed by measuring paw withdrawal thresholds of both hindpaws to an increasing pressure stimulus using an Analgesymeter (Ugo-Basile, Milan). Mechanical allodynia is assessed by measuring withdrawal thresholds to non-noxious mechanical stimuli applied with von Frey hairs to the plantar surface of both hindpaws. Thermal hyperalgesia is assessed by measuring withdrawal latencies to a noxious thermal stimulus applied to the underside of each hindpaw. With all models, mechanical hyperalgesia and allodynia and thermal hyperalgesia develop within 1-3 days following surgery and persist for at least 50 days. For the assays described herein, drugs may be applied before and after surgery to assess their effect on the development of hyperalgesia, particularly approximately 14 days following surgery, to determine their ability to reverse established hyperalgesia.
(§3) The percentage reversal of hyperalgesia is calculated as follows: [formula] In the experiments disclosed herein, Wistar rats (male) are employed in pain models described above. Rats weigh approximately 120-140 grams at the time of surgery. All surgery is performed under enflurane/O2 inhalation anaesthesia. In all cases the wound is closed after the procedure and the animal allowed to recover. In all pain models employed, after a few days in all but the sham operated animals, a marked mechanical and thermal hyperalgesia and allodynia develops in which there is a lowering of pain threshold and an enhanced reflex withdrawal response of the hind-paw to touch, pressure or thermal stimuli. […] In the majority of animals the toes of the affected hind paw are held together and the foot turned slightly to one side; in some rats the toes are also curled under. The gait of the ligated rats varies, but limping is uncommon. […] The rats tend to be very sensitive to touch and may vocalise. Otherwise the general health an condition of the rats is good.
(§4) The effect of Compound A on mechanical hyperalgesia and allodynia is examined in the Seltzer model of neuropathic pain in the rat (Seltzer et al, 1990) as described above. With this model mechanical hyperalgesia and allodynia is induced in the ipsilateral (ligated) hindpaw approximately 1 day following surgery and persists for some weeks. Mechanical hyperalgesia is assessed by measuring paw withdrawal thresholds of both hindpaws to an increasing pressure stimulus using an Analgesymeter (Ugo-Basile, Milan). Mechanical allodynia is assessed by measuring withdrawal thresholds to non-noxious mechanical stimuli applied with von Frey hairs to the plantar surface of both hindpaws.
Experimental Protocol: The effect of Compound A on the development of mechanical hyperalgesia is tested by administering the compound or vehicle (20% cremaphor/water) orally twice daily for 7 days starting on the day of surgery. Prior to surgery paw withdrawal thresholds of ipsilateral (ligated) and contralateral (non-ligated) paws are approximately 100 g. […]

[2] = tested on: mechanical hyperalgesia in the Seltzer model of neuropathic pain in the rat; assay: Seltzer model, perioperative administration of Compound A on neuropathic hyperalgesia; details: for Paw withdrawal threshold: ipsilateral paw
Source text: as §1, §2, §3, §4
Compound A also affects the development of hyperalgesia following peri-operative dosing. […] The effect of the two doses of Compound A lasted for approximately 7 days by which time the degreee of hyperalgesia is similar to that seen in vehicle treated animals.
All animals received administration of vehicle or compound 1 h prior to surgery (pre) and 5 h following surgery (post).

[3] = tested on: mechanical hyperalgesia in the Seltzer model of neuropathic pain in the rat; assay: Seltzer model, established neuropathic hyperalgesia, repeated administration of Compound A
Source text: as §1, §2, §3, §4
Inhibition of MMP7 may also reduce established mechanical hyperalgesia. 7 days following ligation ipsilateral paw withdrawal thresholds are reduced to approximately 65 g compared to contralteral readings of approximately 100 g, indicating mechanical hyperalgesia. Compound A (3 and 30 mg/kg) or vehicle (20% cremaphor/water) is then administered orally twice daily for 10 days. […]

CC[C@H](C(=O)NO)[C@H](C(=O)N1CCCC[C@H]1C(=O)NC(C)C)c1ccc(Cl)cc1 [Compound A, (S)-1-[(2S,3S)-2-(4-Chloro-phenyl)-3-hydroxycarbamoyl-pentanoyl]-piperidine-2-carboxylic acid isopropylamide]
ipsilateral withdrawal thresholds versus vehicle treated animals ([1]; 3 days after the end of compound administration): remain elevated above those of vehicle treated animals
withdrawal thresholds of contralateral paws ([1]; contralateral (non-ligated) paw, following surgery, vehicle or compound administration, throughout the experiment): do not significantly change
Paw withdrawal threshold ([1]; ipsilateral paw, 3 mg/kg orally twice daily for 7 days from day of surgery, day 1 of treatment): 72.5 ± 2.8 g
Paw withdrawal threshold ([1]; ipsilateral paw, 3 mg/kg orally twice daily for 7 days from day of surgery, day 2 of treatment): 76.7 ± 3.1 g
Paw withdrawal threshold ([1]; ipsilateral paw, 3 mg/kg orally twice daily for 7 days from day of surgery, day 3 of treatment): 78.3 ± 2.5 g
Paw withdrawal threshold ([1]; ipsilateral paw, 3 mg/kg orally twice daily for 7 days from day of surgery, day 4 of treatment): 83.3 ± 2.8 g
Paw withdrawal threshold ([1]; ipsilateral paw, 3 mg/kg orally twice daily for 7 days from day of surgery, day 5 of treatment): 83.3 ± 5.7 g
Paw withdrawal threshold ([1]; ipsilateral paw, 3 mg/kg orally twice daily for 7 days from day of surgery, day 7 of treatment): 86.7 ± 4.8 g
Paw withdrawal threshold ([1]; ipsilateral paw, 3 mg/kg orally twice daily for 7 days from day of surgery, day 10 (3 days after end of dosing)): 90.0 ± 4.7 g
Paw withdrawal threshold ([1]; ipsilateral paw, 3 mg/kg orally twice daily for 7 days from day of surgery, pre-surgery (baseline)): 100.8 ± 2.4 g
Paw withdrawal threshold ([1]; ipsilateral paw, 30 mg/kg orally twice daily for 7 days from day of surgery, day 1 of treatment): 78.3 ± 2.8 g
Paw withdrawal threshold ([1]; ipsilateral paw, 30 mg/kg orally twice daily for 7 days from day of surgery, day 2 of treatment): 80.8 ± 4.0 g
Paw withdrawal threshold ([1]; ipsilateral paw, 30 mg/kg orally twice daily for 7 days from day of surgery, day 3 of treatment): 83.3 ± 4.9 g
Paw withdrawal threshold ([1]; ipsilateral paw, 30 mg/kg orally twice daily for 7 days from day of surgery, day 4 of treatment): 85.8 ± 4.4 g
Paw withdrawal threshold ([1]; ipsilateral paw, 30 mg/kg orally twice daily for 7 days from day of surgery, day 5 of treatment): 83.2 ± 3.1 g
Paw withdrawal threshold ([1]; ipsilateral paw, 30 mg/kg orally twice daily for 7 days from day of surgery, day 7 of treatment): 82.0 ± 5.8 g
Paw withdrawal threshold ([1]; ipsilateral paw, 30 mg/kg orally twice daily for 7 days from day of surgery, day 10 (3 days after end of dosing)): 86.0 ± 4.0 g
Paw withdrawal threshold ([1]; ipsilateral paw, 30 mg/kg orally twice daily for 7 days from day of surgery, pre-surgery (baseline)): 97.5 ± 2.1 g
withdrawal thresholds after repeated dosing ([1]; ipsilateral paw, orally twice daily for 7 days from day of surgery, vehicle approximately 60 g): 80 to 90 g
duration of the effect of the two doses ([2]; 30 mg/kg oral 1 h prior to and 5 h following surgery): approximately 7 days
degree of hyperalgesia (ipsilateral paw withdrawal thresholds versus vehicle) ([2]; 30 mg/kg oral 1 h prior to surgery and again 5 h following surgery): significant reduction in the degree of hyperalgesia
Paw withdrawal threshold ([2]; Compound A 30 mg/kg oral 1 h pre surgery + Compound A 5 h post, day 1 of study): 79.2 ± 2.4 g
Paw withdrawal threshold ([2]; Compound A 30 mg/kg oral 1 h pre surgery + Compound A 5 h post, day 2 of study): 81.7 ± 2.1 g
Paw withdrawal threshold ([2]; Compound A 30 mg/kg oral 1 h pre surgery + Compound A 5 h post, day 3 of study): 80.0 ± 2.2 g
Paw withdrawal threshold ([2]; Compound A 30 mg/kg oral 1 h pre surgery + Compound A 5 h post, day 4 of study): 77.5 ± 1.1 g
Paw withdrawal threshold ([2]; Compound A 30 mg/kg oral 1 h pre surgery + Compound A 5 h post, day 6 of study): 73.3 ± 3.1 g
Paw withdrawal threshold ([2]; Compound A 30 mg/kg oral 1 h pre surgery + Compound A 5 h post, day 7 of study): 70.8 ± 2.4 g
Paw withdrawal threshold ([2]; Compound A 30 mg/kg oral 1 h pre surgery + Compound A 5 h post, pre-surgery (baseline)): 101.7 ± 1.1 g
Paw withdrawal threshold ([2]; Compound A 30 mg/kg oral 1 h pre surgery + vehicle 5 h post, day 1 of study): 75.8 ± 2.4 g
Paw withdrawal threshold ([2]; Compound A 30 mg/kg oral 1 h pre surgery + vehicle 5 h post, day 2 of study): 69.2 ± 3.7 g
Paw withdrawal threshold ([2]; Compound A 30 mg/kg oral 1 h pre surgery + vehicle 5 h post, day 3 of study): 70.8 ± 2.0 g
Paw withdrawal threshold ([2]; Compound A 30 mg/kg oral 1 h pre surgery + vehicle 5 h post, day 4 of study): 67.5 ± 1.7 g
Paw withdrawal threshold ([2]; Compound A 30 mg/kg oral 1 h pre surgery + vehicle 5 h post, day 6 of study): 70.0 ± 2.2 g
Paw withdrawal threshold ([2]; Compound A 30 mg/kg oral 1 h pre surgery + vehicle 5 h post, day 7 of study): 65.0 ± 3.2 g
Paw withdrawal threshold ([2]; Compound A 30 mg/kg oral 1 h pre surgery + vehicle 5 h post, pre-surgery (baseline)): 105.0 ± 1.3 g
inhibition of hyperalgesia ([2]; single dose 1 h prior to surgery): significant inhibition of hyperalgesia only at 1 day post surgery
ipsilateral paw withdrawal threshold ([3]; 3 mg/kg orally twice daily for 10 days starting 7 days after ligation, day 1 of study): 62.5 ± 2.1 g
ipsilateral paw withdrawal threshold ([3]; 3 mg/kg orally twice daily for 10 days starting 7 days after ligation, day 2 of study): 68.3 ± 1.1 g
ipsilateral paw withdrawal threshold ([3]; 3 mg/kg orally twice daily for 10 days starting 7 days after ligation, day 3 of study): 67.5 ± 2.5 g
ipsilateral paw withdrawal threshold ([3]; 3 mg/kg orally twice daily for 10 days starting 7 days after ligation, day 4 of study): 80.0 ± 2.2 g
ipsilateral paw withdrawal threshold ([3]; 3 mg/kg orally twice daily for 10 days starting 7 days after ligation, day 5 of study): 80.0 ± 3.4 g
ipsilateral paw withdrawal threshold ([3]; 3 mg/kg orally twice daily for 10 days starting 7 days after ligation, day 6 of study): 80.8 ± 2.4 g
ipsilateral paw withdrawal threshold ([3]; 3 mg/kg orally twice daily for 10 days starting 7 days after ligation, day 7 of study): 80.8 ± 2.4 g
ipsilateral paw withdrawal threshold ([3]; 3 mg/kg orally twice daily for 10 days starting 7 days after ligation, day 8 of study): 80.8 ± 2.4 g
ipsilateral paw withdrawal threshold ([3]; 3 mg/kg orally twice daily for 10 days starting 7 days after ligation, day 9 of study): 75.8 ± 3.5 g
ipsilateral paw withdrawal threshold ([3]; 3 mg/kg orally twice daily for 10 days starting 7 days after ligation, day 10 of study): 81.7 ± 3.1 g
ipsilateral paw withdrawal threshold ([3]; 3 mg/kg orally twice daily for 10 days starting 7 days after ligation, day 11 of study): 76.7 ± 2.1 g
ipsilateral paw withdrawal threshold ([3]; 3 mg/kg orally twice daily for 10 days starting 7 days after ligation, day 12 of study): 78.3 ± 2.5 g
ipsilateral paw withdrawal threshold ([3]; 3 mg/kg orally twice daily for 10 days starting 7 days after ligation, day 13 of study): 79.2 ± 2.4 g
ipsilateral paw withdrawal threshold ([3]; 3 mg/kg orally twice daily for 10 days starting 7 days after ligation, day 14 of study): 75.8 ± 3.5 g
ipsilateral paw withdrawal threshold ([3]; 3 mg/kg orally twice daily for 10 days starting 7 days after ligation, day 15 of study): 76.7 ± 2.5 g
ipsilateral paw withdrawal threshold ([3]; 3 mg/kg orally twice daily for 10 days starting 7 days after ligation, day 18 of study): 75.8 ± 2.4 g
ipsilateral paw withdrawal threshold ([3]; 3 mg/kg orally twice daily for 10 days starting 7 days after ligation, day 21 of study): 74.2 ± 1.5 g
ipsilateral paw withdrawal threshold ([3]; 3 mg/kg orally twice daily for 10 days starting 7 days after ligation, day 23 of study): 70.0 ± 1.8 g
ipsilateral paw withdrawal threshold ([3]; 3 mg/kg orally twice daily for 10 days starting 7 days after ligation, predose): 65.8 ± 0.8 g
ipsilateral paw withdrawal threshold ([3]; 30 mg/kg orally twice daily for 10 days starting 7 days after ligation, day 1 of study): 68.3 ± 2.1 g
ipsilateral paw withdrawal threshold ([3]; 30 mg/kg orally twice daily for 10 days starting 7 days after ligation, day 2 of study): 68.3 ± 1.7 g
ipsilateral paw withdrawal threshold ([3]; 30 mg/kg orally twice daily for 10 days starting 7 days after ligation, day 3 of study): 71.7 ± 2.1 g
ipsilateral paw withdrawal threshold ([3]; 30 mg/kg orally twice daily for 10 days starting 7 days after ligation, day 4 of study): 78.3 ± 4.8 g
ipsilateral paw withdrawal threshold ([3]; 30 mg/kg orally twice daily for 10 days starting 7 days after ligation, day 5 of study): 84.2 ± 2.4 g
ipsilateral paw withdrawal threshold ([3]; 30 mg/kg orally twice daily for 10 days starting 7 days after ligation, day 6 of study): 84.2 ± 4.4 g
ipsilateral paw withdrawal threshold ([3]; 30 mg/kg orally twice daily for 10 days starting 7 days after ligation, day 7 of study): 83.3 ± 5.4 g
ipsilateral paw withdrawal threshold ([3]; 30 mg/kg orally twice daily for 10 days starting 7 days after ligation, day 8 of study): 83.3 ± 2.5 g
ipsilateral paw withdrawal threshold ([3]; 30 mg/kg orally twice daily for 10 days starting 7 days after ligation, day 9 of study): 79.2 ± 3.0 g
ipsilateral paw withdrawal threshold ([3]; 30 mg/kg orally twice daily for 10 days starting 7 days after ligation, day 10 of study): 85.0 ± 2.6 g
ipsilateral paw withdrawal threshold ([3]; 30 mg/kg orally twice daily for 10 days starting 7 days after ligation, day 11 of study): 82.5 ± 3.4 g
ipsilateral paw withdrawal threshold ([3]; 30 mg/kg orally twice daily for 10 days starting 7 days after ligation, day 12 of study): 80.8 ± 2.4 g
ipsilateral paw withdrawal threshold ([3]; 30 mg/kg orally twice daily for 10 days starting 7 days after ligation, day 13 of study): 80.0 ± 2.6 g
ipsilateral paw withdrawal threshold ([3]; 30 mg/kg orally twice daily for 10 days starting 7 days after ligation, day 14 of study): 78.3 ± 1.7 g
ipsilateral paw withdrawal threshold ([3]; 30 mg/kg orally twice daily for 10 days starting 7 days after ligation, day 15 of study): 78.3 ± 2.5 g
ipsilateral paw withdrawal threshold ([3]; 30 mg/kg orally twice daily for 10 days starting 7 days after ligation, day 18 of study): 77.5 ± 2.1 g
ipsilateral paw withdrawal threshold ([3]; 30 mg/kg orally twice daily for 10 days starting 7 days after ligation, day 21 of study): 81.7 ± 2.5 g
ipsilateral paw withdrawal threshold ([3]; 30 mg/kg orally twice daily for 10 days starting 7 days after ligation, day 23 of study): 77.5 ± 2.1 g
ipsilateral paw withdrawal threshold ([3]; 30 mg/kg orally twice daily for 10 days starting 7 days after ligation, predose): 66.7 ± 2.1 g
ipsilateral paw withdrawal thresholds compared to vehicle treated animals ([3]; after 4 days of drug treatment, 3 and 30 mg/kg orally twice daily): significant increase in ipsilateral paw withdrawal thresholds
persistence of increased thresholds following cessation of compound administration ([3]; at the higher dose (30 mg/kg)): up to 2 weeks
